SMILES strings stand for the structures.

The data set in a line: gradient 5% acetonitrile 3 min, to 50% in 2 min, to 85% in 15 min, held 3 min, 100 µL/min. The conditions noted are these: column: Zorbax Extend-C18 2.1 x 50 mm; eluents: water / acetonitrile, 0.1% formic acid. The method, boiled down:
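A Zorbax Extend-C18 column (2.1 × 50 mm, 1.8 μm) run at 100 μL/min with water and acetonitrile, both containing 0.1% formic acid, separated mixtures of ~100 pure standards. The HPLC was coupled to a quadrupole time-of-flight mass spectrometer operated in positive and negative ionization mode, with dead and dwell volumes of 40 μL and 900 μL. Each retention time was taken from a computationally picked adduct peak that was then manually inspected.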
Turning to `Brc1ccc(-c2noc(Cc3nc(-c4ccccc4)cs3)n2)cc1`, the RP-LC retention time was found to be 1350 s.

`CCN(CC)S(=O)(=O)c1ccc2c(c1)N(CC(=O)NCCc1ccccc1)C(=O)C1CCCCN21` (stereo not drawn): the RP-LC retention time came out at 1000 s.

For the molecule `CCC(=O)N1CCc2cc(N3CC(C(=O)NCc4cccc(Cl)c4)CC3=O)ccc21` (stereo not drawn), the RP-LC retention time amounted to 776 s.

The molecule `Cc1nc(Cn2cccc2C(=O)Nc2ccc(C)c(Cl)c2)no1` displayed an RP-LC retention time of 954 s.

Molecule `O=C(O)c1cnc(N2CCCCC2)nc1-c1ccncc1` gave an RP-LC retention time of 636 s.

Molecule `COc1ccc(CNC(=O)C2CCN(S(=O)(=O)c3cn(C(C)C)cn3)CC2)cc1` had an RP-LC retention time of 733 s.

For `Cc1cc(-c2ccc(S(=O)(=O)N3CCC(C(=O)NCC4CCCCC4)CC3)o2)n[nH]1`, the RP-LC retention time came out at 840 s.

As to `CCS(=O)(=O)N1CC(=O)N(c2cccc(C)c2C)C(C)(C(=O)NC2CCCCCC2)C1` (stereo not drawn), the RP-LC retention time stood at 930 s.

Turning to `Cc1cc(C)c2c(-n3cccc3)nn(CC(=O)Nc3ccc(C(C)C)cc3)c2n1`, the RP-LC retention time came to 1160 s.

`CC(C)(C)NC(=O)N1CCCC(c2nc(CCOCC3CCOCC3)no2)C1` (stereo not drawn) yielded an RP-LC retention time of 728 s.

As to `COc1cc2c(cc1OC)CN(C(=O)C1CC(=O)N(c3n[nH]c4cccc(F)c34)C1)CC2` (stereo not drawn), the RP-LC retention time was determined as 689 s.

As for `CC(C)(C)c1ccc(C(=O)N2CCN(c3nc(CN4CCOCC4)cs3)CC2)cc1`, the RP-LC retention time is 711 s.

In turn, `Fc1ccccc1-c1ccc(CNCc2ccco2)o1` registered an RP-LC retention time of 659 s.

`COC(=O)c1ccccc1NC(=O)CSc1ccc(N2CCCC(C(=O)NC3CC3)C2)nn1` (stereo not drawn) returned an RP-LC retention time of 683 s.

As for `Cc1ccccc1-c1noc(Cc2nnc(-c3cccc(Br)c3)o2)n1`, the RP-LC retention time came to 853 s.

Turning to `O=C(Nc1ccccc1)N(Cc1cccnc1)C1CN(Cc2ccc(F)c(F)c2)C1`, the RP-LC retention time is 965 s.

`COc1ccc(-c2nnc(-c3cc(S(=O)(=O)N4CCOCC4)ccc3Cl)o2)cc1` displayed an RP-LC retention time of 950 s.

`COc1ccc(NS(=O)(=O)c2cc(-c3[nH]ncc3C(=O)N(C)C)oc2C)c(C)c1` returned an RP-LC retention time of 681 s.

In the case of `Cc1nc(C(=O)NC2CCCCC2)c(C)o1`, the RP-LC retention time is 767 s.

`CCOCCCNC(=O)C(Cc1c[nH]c2ccccc12)NC(=O)C1CCC(C)CC1` (stereo not drawn): the RP-LC retention time came out at 839 s.

In turn, `N#Cc1cccc(C(=O)NC2CCN(c3cc(-c4ccccc4)[nH]n3)C2)c1` (stereo not drawn) displayed an RP-LC retention time of 691 s.

For the molecule `COc1ccc2[nH]cc(CCNC(=O)c3cc4n(n3)CCCN(Cc3ccc(Cl)cc3)C4=O)c2c1`, the RP-LC retention time was determined as 693 s.

Consider `O=C1NC2(CCN(C(=O)c3ccc(F)cc3)CC2)N=C1c1cccc(F)c1`, for which the RP-LC retention time stood at 635 s.

As to `O=c1[nH]c2ccc(S(=O)(=O)Nc3cccc(C(F)(F)F)c3)cc2[nH]1`, the RP-LC retention time is 664 s.

As to `O=C(CN1CCC2(CC1)N=C(c1ccccc1)C(=O)N2)Nc1ccc(Br)cc1F`, the RP-LC retention time was 685 s.

In turn, `CC(C)Cn1cc(CCNS(=O)(=O)c2ccc(Cl)s2)c2cccnc21` returned an RP-LC retention time of 987 s.

On to `Cc1cccc(CNC(=O)C2CCN(S(=O)(=O)c3cc(C(=O)N4CCOCC4)cs3)CC2)c1`, for which the RP-LC retention time worked out at 763 s.

Regarding `COc1ccc(N2CC(c3nc(-c4cc(OC)c(OC)c(OC)c4)no3)CC2=O)cc1` (stereo not drawn), the RP-LC retention time stood at 743 s.

Molecule `O=C(C1CCCC1)N1CC(c2nc(-c3ccccc3)no2)C2(CCOCC2)C1` (stereo not drawn) yielded an RP-LC retention time of 923 s.

`CC1=C(c2cccc(Cl)c2)S(=O)(=O)N=C1N1CCCN(C(=O)NC(C)C)CC1` had an RP-LC retention time of 802 s.

`Cc1cnc(-c2ccncc2)n1CCNS(=O)(=O)c1ccc2c(c1)CCC2`: the RP-LC retention time was 633 s.

`COCCc1noc(-c2ccc(=O)n(CC(=O)Nc3cc(F)ccc3F)c2)n1` returned an RP-LC retention time of 728 s.

`CCN1C(=O)COc2ccc(-c3csc(NC(=O)c4ccccc4Br)n3)cc21`: the RP-LC retention time was 980 s.

`COc1ccc(C(=O)N2CCN3CCS(=O)(=O)N(C4CC4)C(=O)C3C2)c(OC)n1` (stereo not drawn) came in with an RP-LC retention time of 732 s.

In turn, `CCCn1cc(C(=O)NCC(C)C)c2nn(-c3ccccc3)c(=O)c-2c1` gave an RP-LC retention time of 878 s.

Turning to `CC(=O)Nc1ccc(CCc2nc3ccc(C(=O)NC4CCCCCC4)cc3[nH]2)cc1`, the RP-LC retention time was determined as 650 s.

The molecule `O=c1c2cc(-c3cccs3)nn2cnn1Cc1nc(-c2ccccc2Br)no1` displayed an RP-LC retention time of 1050 s.

The molecule `CCCNC(=O)C1CCCN(c2ccc(SCC(=O)Nc3ccccc3C)nn2)C1` (stereo not drawn) came in with an RP-LC retention time of 655 s.

`COc1ccc(-c2csc3c(=O)n(Cc4ccccc4)cnc23)cc1OC`: the RP-LC retention time was 948 s.

As for `Cc1ccc(NC(=O)C2CCN(C(=O)c3ncn4c3COC(c3ccc(F)cc3)C4)CC2)c(Cl)c1` (stereo not drawn), the RP-LC retention time turned out to be 842 s.

For `CCOC(=O)CNC(=O)N1CCN(Cc2nc3cccnc3n2-c2ccc(C)cc2)CC1`, the RP-LC retention time stood at 611 s.

Molecule `O=c1cccnn1CCCNS(=O)(=O)c1ccc2c(c1)OCCO2` registered an RP-LC retention time of 645 s.

For `CC(C)OCCCNC(=O)c1nnc(-c2ccc(S(=O)(=O)N3CCOCC3)cc2)o1`, the RP-LC retention time is 784 s.

`Cn1nc(-c2ccccc2)cc1C(=O)Nc1nc2c(s1)CN(S(=O)(=O)C1CC1)CC2`: the RP-LC retention time was 854 s.

`CC(=O)Nc1ccc(C(=O)N2CC3CN(S(=O)(=O)c4cccc(F)c4)CC(C2)O3)cc1` yielded an RP-LC retention time of 685 s.

Molecule `COc1cc(OC)c(NC(=O)N2c3ccccc3CC2c2nc(C3CC3)no2)cc1Cl` (stereo not drawn) yielded an RP-LC retention time of 1120 s.

For `COc1ccc(C)cc1NC(=O)Cn1cnc2c(sc3nc(-c4ccccc4)ccc32)c1=O`, the RP-LC retention time turned out to be 1090 s.

In turn, `O=C(NCC1COc2ccccc2O1)C(=O)Nc1cccc(Br)c1` (stereo not drawn) returned an RP-LC retention time of 1030 s.

As for `O=C(NCc1ccco1)N1CCN(Cc2nc3cccnc3n2-c2cccc(F)c2)CC1`, the RP-LC retention time turned out to be 636 s.

As for `CCC(C)NC(=O)c1cc2c(s1)CCN(C(=O)c1ccccc1)C2` (stereo not drawn), the RP-LC retention time worked out at 769 s.

In turn, `CCCN1C(=O)Cc2ccccc2C1C(=O)NCCOC` (stereo not drawn) yielded an RP-LC retention time of 641 s.

In turn, `O=C(Nc1ccccc1C(=O)NCCCN1CCCC1)C1=CSCCO1` displayed an RP-LC retention time of 613 s.

In turn, `Cc1ccc(-c2nc3nc(C)cc(NCc4ccc5c(c4)OCO5)n3n2)cc1` registered an RP-LC retention time of 892 s.

On to `O=C(CCS(=O)(=O)c1ccccc1)N(Cc1ccccn1)Cc1ccco1`, for which the RP-LC retention time amounted to 610 s.

For the molecule `Cc1cccc(-c2ncccc2CNS(=O)(=O)c2ccccc2Cl)c1`, the RP-LC retention time worked out at 732 s.

Turning to `COC(=O)c1ccc(CN2CCN(c3cnn4c(C5CC5)nnc4c3)CC2)cc1`, the RP-LC retention time was 571 s.

Molecule `O=C(NCc1cc(F)ccc1F)C1CCN(c2cncnc2N2CCCC2)CC1` displayed an RP-LC retention time of 653 s.

Regarding `O=C(Cc1ccc(NC(=O)NC2CC2)cc1)NCC(F)(F)F`, the RP-LC retention time came out at 611 s.
